Reference: patent publication US20240417395A1, “DUAL ANTAGONIST AND USE THEREOF” (NICOYA THERAPEUTICS (SHANGHAI) CO., LTD, priority 2021, published 2024)
≈ marks a conversion by molar mass, not a printed value. Where two headings read alike, the source gives them in different places. Residues, ends and D or L forms follow the SMILES beside them.

Columns and labels:
ETa = ETa (Homo sapiens (Human), UniProt P25101); assay: Calcium flux assay on ETa cell line; assay type: cell-based; settings: ETa/HEK293, calcium flux, endothelin-1 agonist
Chain of ETa (P25101 21-427): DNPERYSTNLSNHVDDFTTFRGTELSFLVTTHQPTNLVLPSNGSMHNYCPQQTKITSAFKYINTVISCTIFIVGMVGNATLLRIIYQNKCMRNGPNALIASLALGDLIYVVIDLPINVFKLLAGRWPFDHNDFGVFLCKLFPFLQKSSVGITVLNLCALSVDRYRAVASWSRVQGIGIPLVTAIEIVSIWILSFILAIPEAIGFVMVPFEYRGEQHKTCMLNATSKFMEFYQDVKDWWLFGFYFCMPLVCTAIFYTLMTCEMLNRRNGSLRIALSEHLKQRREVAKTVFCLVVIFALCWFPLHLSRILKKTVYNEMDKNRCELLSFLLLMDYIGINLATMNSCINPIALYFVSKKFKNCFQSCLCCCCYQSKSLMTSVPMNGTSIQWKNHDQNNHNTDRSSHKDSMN
Method: (§1) Test materials: a) cell line: ETa/HEK293; b) vehicles: DMEM, Invitrogen (Cat #11960); Geneticin, Invitrogen (Cat #10131); c) reagent: Fluo-4 Direct, (Invitrogen, Cat #F10471); d) instruments: 384 well Poly-D-Lysine protein coating plate, Greiner #781946; Vi-cell XR Cell Viability Analyzer, Beckman Coulter; Incubator, Thermo.
For the employed agonist endothelin factor (endothelin-1, ET-1) master plate: the agonist was diluted from 50 μM to 15 μM with the test buffer solution.
For antagonist (BQ123, Am J Physiol. 1994 April; 266 (4 Pt 2): H1327-31.) plates and the compound plates: the antagonist and the tested compounds were diluted with DMSO at a gradient ratio of 1:4 to obtain 10 concentration points. Afterwards, 900 nL of each compound solution was transferred to the master plate and 30 μL of the test buffer solution was added. • a) The cell line was removed from the incubator, and 20 μL of 2X Fluo-4 Direct™ buffer solution was added gently by a pipette to a 384-well cell culture plate. • b) The cell plate was incubated at 37° C. for 50 min in the environment of 5% CO2, and then incubated at room temperature for 10 min. • c) The cell plate was removed from the incubator and placed in FLIPR. The compound plates and the tip box were placed in FLIPR. • d) Regarding the EC80 plate: • 1) Operations were conducted on […]. • 2) 10 μL of compound solution was transferred from the EC80 master plate to the cell plate. • 3) Fluorescence signals were read. • 4) The read signals were counted, and the EC80 value of each cell line was calculated using FLIPR. • 5) For the concentration of the compound plate, a solution having a concentration 6 times that of the reference agonist EC80 was formulated. • e) Regarding the compound plate: • 1) Operations were conducted on […]. • 2) 10 μL of compound was transferred to the cell plate. • 3) Fluorescence signals were read. • 4) 10 μL of solution having a concentration 6 times that of the reference agonist EC80 was transferred to the cell plate. • 5) Fluorescence signals were read. • f) Data analysis by Prism

AT1 = AT1 (Homo sapiens (Human), UniProt P30556); assay: Calcium flux assay on AT1 cell line; assay type: cell-based; settings: AT1/HEK293, calcium flux, angiotensin II agonist
Chain of AT1 (P30556 whole entry): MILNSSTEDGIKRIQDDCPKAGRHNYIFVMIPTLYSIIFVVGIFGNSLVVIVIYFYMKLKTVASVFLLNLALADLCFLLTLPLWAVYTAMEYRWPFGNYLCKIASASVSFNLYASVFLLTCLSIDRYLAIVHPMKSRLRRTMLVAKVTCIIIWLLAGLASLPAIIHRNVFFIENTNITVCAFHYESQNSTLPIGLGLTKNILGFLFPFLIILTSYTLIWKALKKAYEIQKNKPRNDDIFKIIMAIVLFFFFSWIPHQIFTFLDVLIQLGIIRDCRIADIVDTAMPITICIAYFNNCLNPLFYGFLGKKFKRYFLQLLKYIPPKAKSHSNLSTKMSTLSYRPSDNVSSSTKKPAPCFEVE
Method: as §1, with “AT1/HEK293;” for “ETa/HEK293;”, “F12,” for “DMEM,”, “#11765-047); FBS, Corning (Cat #35-076-CV);” for “#11960);”
For the agonist (angiotensin II) master plate, the agonist solution was diluted from 1 mM to 200 μM with the test buffer solution. […] Afterwards, 900 nL of each compound solution was transferred to the master plate and 30 μL of the test buffer solution was added. • a) The cell plate was removed from the incubator, and 20 μL of 2X Fluo-4 Direct was added by a pipette to a 384-well cell plate. • b) The cell plate was incubated at 37° C. for 50 min in the environment of 5% CO2, and then incubated at room temperature for 10 min. • c) The cell plate was removed from the incubator and placed in FLIPR. The compound plates and the tip box were placed in FLIPR. • d) Regarding the EC80 plate: • 1) Operations were conducted on […]. • 2) 10 μL of compound solution was transferred from the EC80 master plate to the cell plate. • 3) Fluorescence signals were read. • 4) The read signals were counted, and the EC80 value of each cell line was calculated using FLIPR. • 5) For the concentration of the compound plate, a solution having a concentration 6 times that of the reference agonist EC80 was formulated. • e) Regarding the compound plate: • 1) Operations were conducted on […]. • 2) 10 μL of compound was transferred to the cell plate. • 3) Fluorescence signals were read. • 4) 10 μL of solution having a concentration 6 times that of the reference agonist EC80 was transferred. • 5) Fluorescence signals were read. • f) Data analysis by Prism

[1] = Experiment on water solubility (HPLC-UV); assay type: physicochemical
Method: The detection was carried out in accordance with the high performance liquid chromatography (General Principles 0512 of Chinese Pharmacopoeia Volume IV (2020)):
Chromatographic conditions for the HPLC-UV method: mobile phase: 0.02 M KH2PO4 aqueous solution-acetonitrile (90:10), gradient elution; chromatographic column: C18; detection wavelength: 210 nm. The water solubility was calculated based on the peak area by the external standard method.

CC(C)C[C@@H]1NC(=O)[C@@H](C(C)C)NC(=O)[C@@H]2CCCN2C(=O)[C@@H](CC(=O)O)NC(=O)[C@@H](Cc2c[nH]c3ccccc23)NC1=O [BQ123, reference compound] (HELM PEPTIDE1{L.[dW].[dD].P.[dV]}$PEPTIDE1,PEPTIDE1,1:R1-5:R2$$$V2.0)
IC50 (ETa; read-out: IC50 activity against ETa (class)): 1 to 10 nM | IC50 (ETa; read-out: IC50 against ETa): 2.56 nM

CCCCC1=NC2(CC3(CC3)C2)C(=O)N1Cc1ccc(-c2ccccc2S(=O)(=O)Nc2noc(C)c2C)c(COCC)c1 [Example 1]
IC50 (AT1; read-out: IC50 against AT1): 2.9 nM | IC50 (ETa; read-out: IC50 against ETa): 24.6 nM | solubility ([1]; aqueous medium at pH 7.4 (buffer not named), pH 7.4, aqueous buffer, pH7.4, read-out: Solubility pH7.4): 370 µg/mL (≈ 612 µM) | solubility ([1]; pH 1.6, fassgf or other biorelevant, FaSSGF (pH1.6), read-out: Solubility FaSSGF (pH1.6)): > 1000 µg/mL | solubility ([1]; pH 5, FeSSIF (pH5.0), read-out: Solubility FeSSIF (pH5.0)): 200 µg/mL (≈ 331 µM) | solubility ([1]; pH 6.5, FaSSIF (pH6.5), read-out: Solubility FaSSIF (pH6.5)): 610 µg/mL (≈ 1010 µM)

CCCCC1=N[C@]2(C[C@H]3C[C@H]3C2)C(=O)N1Cc1ccc(-c2ccccc2S(=O)(=O)Nc2noc(C)c2C)c(COCC)c1 [Example 4]
IC50 (AT1; read-out: IC50 activity against AT1 (class)): 1 to 10 nM | IC50 (AT1; read-out: IC50 against AT1): 4.78 nM | IC50 (ETa; read-out: IC50 against ETa): 132 nM

CCCCC1=N[C@]2(C[C@H]3C[C@H]3C2)C(=O)N1Cc1ccc(-c2ccccc2S(=O)(=O)Nc2noc(C)c2C)c(CN(C)C(=O)CC(C)(C)C)c1 [Example 6]
IC50 (AT1; read-out: IC50 against AT1): 258 nM | IC50 (ETa; read-out: IC50 against ETa): 17.6 nM
